# Measurements taken from PMC10458458, “Characterization of Anticancer Effects of the Analogs of DJ4, a Novel Selective Inhibitor of ROCK and MRCK Kinases” (Pharmaceuticals, 2023).
# What was measured:
# [1] = test system: A549 cells; test: Western blot of cell cycle regulatory proteins; type: cell-based, human
# Experimental: To better understand the anti-proliferative and pro-apoptotic effects of DJ4, expression of key proteins involved in proliferation and apoptosis were determined by a Western blot. A549 cells were treated with 2.5 µM and 10 µM concentrations for 24 h and 48 h. […] We also examined the expression of cyclin D3 and CDK4 (G1/S cell cycle checkpoint kinase).
# (§1) For protein expression studies, MDA-MB-231 cells were treated with indicated concentrations of DJ4 for 24 h. Additionally, A549 cells were treated for 24 h and 48 h. Cell lysate preparation, protein estimation, and Western blot analysis was performed as per the procedure reported earlier. The blots were probed with cleaved caspase 7 (#9492, Cell Signaling, Danvers, MA, USA), GAPDH (#97166, Cell Signaling, Danvers, MA, USA), β-Actin (#3700, Cell Signaling, Danvers, MA, USA), pErk (#5726, Cell Signaling, Danvers, MA, USA), p21 ^WAF1/CIP1 (#60480, Cell Signaling, Danvers, MA, USA), cyclinD3 (#2936, Cell Signaling, Danvers, MA, USA), CDK4 (#23972, Cell Signaling, Danvers, MA, USA), cleaved PARP (#32563, Cell Signaling, Danvers, MA, USA), pan Erk (#23887, Cell Signaling, Danvers, MA, USA), pMYPT1 (Thr853, # SAB4503944, Millipore, Inc., Burlington, MA, USA) and PCNA (#sc-56, Santa Cruz Biotechnology, Inc., Dallas, TX, USA) antibodies.
# [2] = test system: MDA-MB-231 breast cancer cells; test: Western blot of proliferation and apoptosis proteins; type: cell-based, human; conditions: 24 h
# Experimental: To extend these observations to MDA-MB-231 breast cancer cells, cells were treated with DJ4 at 2.5, 5.0, and 10 µM for 24 h. ROCK1/2 catalyzes the inactivating phosphorylation of the myosin phosphatase subunit MYPT1 at Thr696 and Thr853 [16]. To confirm the targeting of ROCK1/2 by DJ4 in MDA-MB-231 cells, we probed for phosphorylation of MYPT1.
# In contrast, expression of proliferating cell nuclear antigen (PCNA) protein was decreased at all the concentrations (Figure 4C). PCNA is highly expressed during active DNA synthesis (S phase).
# as §1
# [3] = test system: HL60VCR acute myeloid leukemia cells; test: Cell number and cell cycle in multidrug resistant cells; type: cell-based, human; conditions: 2.5 µM and 5 µM
# Experimental: The following cell lines used in this study were obtained from ATCC: NSCLC (A549, CCL-185; H522, CRL-5810; H23, CRL-5800; H2126, CCL-256; H460, HTB-177), melanoma (A375M, CRL-1619), and breast cancer (MDA-MB-231, HTB-26). Cells were maintained in DMEM or RPMI media (Cellgro, Corning, NY, USA) supplemented with 10% fetal bovine serum (Gibco, Fisher Scientific, Hampton, NH, USA) and penicillin/streptomycin (Gibco, Fisher Scientific, Hampton, NH, USA) at 37 °C with 5% CO2 humidified incubator. Acute myeloid leukemia cells (AML, HL60; CCL240) were obtained from ATCC while vincristine resistant HL60 (HL60VCR) cells were a gift from Dr. Hong-Gang Wang (Penn State College of Medicine, Hershey, PA, USA) and both the cells were cultured in IMDM medium (HyClone, Washington, D.C., USA) with 10% FBS.
# Figure S3. DJ4 was ineffective in multidrug resistant HL60VCR acute myeloid leukemia cells.
# A. Endogenous expression of p-glycoprotein (P-gp) in HL60 and HL60VCR (multidrug resistant cells). β-Actin was used as internal control.
# B. P-gp inhibitor cyclosporine A (CsA) treatment (2.5 µM) sensitized resistant cancer cells to DJ4. […] Number of cells were counted using MuseTM cell analyzer.
# Statistical significance was analyzed by one-way ANOVA and Dunnett’s multiple comparison post-test. […]
# C. […] The cells were treated at 2.5 µM and 5 µM concentrations and analyzed using flow cytometry. […]
# [4] = biological target: ROCK1 (Homo sapiens, UniProt Q13464); test: KINOMEscan competition binding assay; parameters: purchased DiscoverX Corporation (Lead Hunter Discovery Services, KINOMEscan); conditions: ROCK1, 10 µM
# Excerpt: (§2) To examine specificity of DJ4 to different human kinases, we performed a KINOMEscan profiling assay (DiscoverX, Fremont, CA, USA). The KINOMEscan assay consists of a panel of more than 480 kinases of different classes (TK/TKL/STE/CK1/AGC/CAMK/CMGC/others), including clinically relevant mutants, atypical kinases, lipid, and pathogen kinases. […] However, we also recognized the limitations of DJ4 that preclude its clinical development and the need for further optimization of the DJ4 chemotype.
# (§3) The KINOMEscan®, in vitro competition binding assay, was performed by Lead Hunter Discovery Services (DiscoverX Corporation, Fremont, CA, USA) to determine the kinase specificity of DJ4, a novel kinase inhibitor [19, 44]. The KINOMEscan® panel consists of more than 480 kinases, including clinically relevant mutants, lipid, atypical, and pathogen kinases, plus a growing panel of activation-state specific assays. The primary screen was performed using a single concentration of 10 µM, and the results for DJ4 binding interactions are reported as percent of control (%Ctrl). The %Ctrl is calculated as follows: [(DJ4 signal-positive control signal)/(negative control DMSO signal-positive control signal)] x […]. The human kinome tree annotation for DJ4 is plotted with Reaction Biology’s Kinase Mapper and KinMap web interface tool http://kinhub.org/kinmap (accessed on 09 January 2023).
# [5] = biological target: ROCK2 (Homo sapiens, UniProt O75116); test: KINOMEscan competition binding assay; parameters: purchased DiscoverX Corporation (Lead Hunter Discovery Services, KINOMEscan); conditions: ROCK2, 10 µM
# Excerpt: as §2, §3
# [6] = MDA-MB-231, all concentrations (2.5, 5.0, 10 µM)
# ROCK2, sequence (O75116 whole entry): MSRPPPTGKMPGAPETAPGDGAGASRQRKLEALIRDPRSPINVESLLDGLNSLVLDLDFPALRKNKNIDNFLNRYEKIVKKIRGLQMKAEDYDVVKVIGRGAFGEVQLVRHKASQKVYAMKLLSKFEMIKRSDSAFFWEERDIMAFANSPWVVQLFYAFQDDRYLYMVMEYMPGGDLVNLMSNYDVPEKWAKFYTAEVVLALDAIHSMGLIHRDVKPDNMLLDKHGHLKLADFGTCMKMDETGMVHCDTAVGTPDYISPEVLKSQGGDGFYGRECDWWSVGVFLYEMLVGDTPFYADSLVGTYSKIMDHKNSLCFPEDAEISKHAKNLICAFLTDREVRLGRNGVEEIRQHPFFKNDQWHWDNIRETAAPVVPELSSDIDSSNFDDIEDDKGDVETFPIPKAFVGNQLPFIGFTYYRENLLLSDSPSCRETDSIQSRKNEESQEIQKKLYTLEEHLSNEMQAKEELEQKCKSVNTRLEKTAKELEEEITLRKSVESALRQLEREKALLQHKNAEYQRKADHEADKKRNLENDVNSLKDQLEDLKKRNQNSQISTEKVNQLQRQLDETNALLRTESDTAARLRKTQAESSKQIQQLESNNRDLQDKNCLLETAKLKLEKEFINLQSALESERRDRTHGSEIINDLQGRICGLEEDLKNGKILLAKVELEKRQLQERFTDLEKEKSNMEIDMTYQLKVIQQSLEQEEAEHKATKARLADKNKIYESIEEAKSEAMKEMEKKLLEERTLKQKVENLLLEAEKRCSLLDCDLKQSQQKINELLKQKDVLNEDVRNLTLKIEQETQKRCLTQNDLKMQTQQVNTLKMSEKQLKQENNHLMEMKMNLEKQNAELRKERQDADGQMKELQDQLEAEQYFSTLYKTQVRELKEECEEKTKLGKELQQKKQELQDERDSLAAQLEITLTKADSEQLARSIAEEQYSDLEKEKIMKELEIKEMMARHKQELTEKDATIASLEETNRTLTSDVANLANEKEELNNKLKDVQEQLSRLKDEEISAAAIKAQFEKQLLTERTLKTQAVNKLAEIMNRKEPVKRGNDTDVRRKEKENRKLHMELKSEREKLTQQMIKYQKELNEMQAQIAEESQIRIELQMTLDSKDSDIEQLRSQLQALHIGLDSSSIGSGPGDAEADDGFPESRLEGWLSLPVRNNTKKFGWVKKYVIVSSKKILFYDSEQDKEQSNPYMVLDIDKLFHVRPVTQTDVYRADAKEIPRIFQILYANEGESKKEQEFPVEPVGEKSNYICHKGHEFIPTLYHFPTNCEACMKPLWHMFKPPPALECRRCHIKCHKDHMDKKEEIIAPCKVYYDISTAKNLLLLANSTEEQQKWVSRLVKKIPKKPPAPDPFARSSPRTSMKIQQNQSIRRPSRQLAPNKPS
# ROCK1, sequence (Q13464 whole entry): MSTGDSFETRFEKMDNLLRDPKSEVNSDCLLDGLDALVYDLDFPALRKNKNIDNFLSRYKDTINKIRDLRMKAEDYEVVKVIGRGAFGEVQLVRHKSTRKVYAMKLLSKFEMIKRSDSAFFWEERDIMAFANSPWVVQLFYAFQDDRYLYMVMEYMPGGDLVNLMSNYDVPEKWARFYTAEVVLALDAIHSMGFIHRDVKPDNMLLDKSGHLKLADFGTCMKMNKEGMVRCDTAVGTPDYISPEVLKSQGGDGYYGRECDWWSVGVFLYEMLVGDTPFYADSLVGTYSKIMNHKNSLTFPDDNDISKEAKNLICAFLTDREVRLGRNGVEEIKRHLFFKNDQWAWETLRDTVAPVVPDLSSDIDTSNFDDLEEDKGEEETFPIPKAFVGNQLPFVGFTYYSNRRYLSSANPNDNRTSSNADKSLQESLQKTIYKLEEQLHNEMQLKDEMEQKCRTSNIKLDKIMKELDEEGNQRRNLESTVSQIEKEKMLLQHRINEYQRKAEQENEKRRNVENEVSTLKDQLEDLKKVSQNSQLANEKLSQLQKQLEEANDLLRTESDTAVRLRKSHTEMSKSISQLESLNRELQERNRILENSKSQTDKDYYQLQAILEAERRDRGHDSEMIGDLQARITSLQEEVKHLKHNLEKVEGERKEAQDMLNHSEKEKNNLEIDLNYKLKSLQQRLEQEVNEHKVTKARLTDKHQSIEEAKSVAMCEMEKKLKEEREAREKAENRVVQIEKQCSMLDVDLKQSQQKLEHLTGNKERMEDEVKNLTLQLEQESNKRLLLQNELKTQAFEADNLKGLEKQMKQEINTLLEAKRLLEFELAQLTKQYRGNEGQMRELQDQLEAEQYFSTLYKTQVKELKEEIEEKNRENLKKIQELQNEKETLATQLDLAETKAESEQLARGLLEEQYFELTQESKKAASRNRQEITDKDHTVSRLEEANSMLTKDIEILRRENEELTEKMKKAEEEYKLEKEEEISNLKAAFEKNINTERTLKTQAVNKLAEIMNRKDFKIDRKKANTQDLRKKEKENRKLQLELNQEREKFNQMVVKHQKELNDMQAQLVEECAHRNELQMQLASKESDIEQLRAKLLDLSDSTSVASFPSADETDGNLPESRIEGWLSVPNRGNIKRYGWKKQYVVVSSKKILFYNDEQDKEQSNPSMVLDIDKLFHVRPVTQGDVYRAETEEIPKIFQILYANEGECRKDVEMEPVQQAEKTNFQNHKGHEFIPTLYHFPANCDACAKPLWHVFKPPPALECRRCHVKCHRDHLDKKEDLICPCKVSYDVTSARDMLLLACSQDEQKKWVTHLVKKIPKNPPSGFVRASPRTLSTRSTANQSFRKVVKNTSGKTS
structure (smiles),measurement,setting,value
O=C1N/C(=N\CCc2ccccc2)S/C1=C/c1c[nH]c2ncccc12 [DJ4],activation of Erk1/2 (phospho-Erk; pERK),"[1]; A549, 2.5 µM, 24 h",significantly induced activation
same,expression of CDK4,"[1]; A549, 2.5 µM, 24 h",upregulated
same,expression of cyclin D3,"[1]; A549, 2.5 µM, 24 h",upregulated
same,expression of p21 WAF1/CIP1,"[1]; A549, 2.5 µM, 24 h",upregulated
same,"expression of p21 WAF1/CIP1, pERK, CDK4, and cyclin D3","[1]; A549, 10 µM, 24 h and 48 h",decreased below vehicle treatment levels
same,expression of pErk,"[2]; MDA-MB-231, 2.5, 5.0 and 10 µM",significantly increased
same,cleaved PARP,[2]; [6],corresponding increases
same,expression of PCNA,[2]; [6],decreased
same,expression of cleaved caspase 7,[2]; [6],significantly increased
same,effect in multidrug resistant cells,[3],ineffective
same,inhibition at 10 µM,[4],> 98%
same,inhibition at 10 µM,[5],> 98%
